Assays:
[1] = target: T7 DNA-dependent RNA polymerase (Escherichia phage T7, UniProt P00573); assay: Colorimetric RNA synthesis / PNP release assay; format: biochemical
Description: Production of the PNP-NTP analogs. PNP-GTP and PNP-ATP are made in one high yielding reaction from commercially available starting materials (Scheme 1). When the nucleotide analog is used in RNA synthesis, the β and γ phosphates are released (as pyrophosphate) with the attached PNP. While this compound is colorless, the enzyme alkaline phosphatase rapidly hydrolyzes the pyrophosphates to release PNP, which, at the pH of the polymerase reaction, has a yellow color that absorbs maximally at […]. [drawing 4] […]
PNP-NTPs are useful as continuous reporters for RNA polymerase activity. To simplify the components, transcription reactions were performed in the presence of alkaline phosphatase, a homodeoxycytidylate template that directs the incorporation of only guanylates (named WV-15C), PNP-GTP, and T7 RNA polymerase. The use of homopolymers is well accepted in assessing the activities of viral RNA polymerases, including the HCV RdRp (Lohman et al., 1997. J. Virol., 71, 8416). The reaction was monitored in a spectrometer at […], the maximum absorbance for PNP. […] There were several negative controls in this experiment, all of which yielded minimal PNP release: 1) a reaction without T7 RNA polymerase; 2) a reaction that lacked the essential cofactor, Mg^2+; 3) a reaction that contained homothymidylate (WV-15T), rather than WV-15C. […]

[2] = Stability of PNP-NTPs in plasma (PNP release, absorbance at 405 nm)
Text: (§1) To test the effect of more complex, biologically relevant mixtures of enzymes on PNP-NTP stability, blood was collected and centrifuged to remove cells and collect the plasma.

[3] = target: RdRp of bovine viral diarrhea virus (Bovine viral diarrhea virus, UniProt P19711); assay: RNA synthesis assay; format: biochemical; conditions: compared with T7 polymerase and brome mosaic virus RdRp results
Text: (§2) PNP-NTPs are useful reporters for the activities of a variety of RNA polymerases. […] PNP release was also observed during RNA synthesis by the SP6 RNA polymerase.

brome mosaic virus RdRp = brome mosaic virus RdRp (Brome mosaic virus, UniProt P03594); assay: RNA synthesis assay; format: biochemical
Text: as §2

alkaline phosphatase = conditions: incubation with alkaline phosphatase, without T7 RNA polymerase
Text: as §1

T7 DNA-dependent RNA polymerase, sequence (P00573 whole entry): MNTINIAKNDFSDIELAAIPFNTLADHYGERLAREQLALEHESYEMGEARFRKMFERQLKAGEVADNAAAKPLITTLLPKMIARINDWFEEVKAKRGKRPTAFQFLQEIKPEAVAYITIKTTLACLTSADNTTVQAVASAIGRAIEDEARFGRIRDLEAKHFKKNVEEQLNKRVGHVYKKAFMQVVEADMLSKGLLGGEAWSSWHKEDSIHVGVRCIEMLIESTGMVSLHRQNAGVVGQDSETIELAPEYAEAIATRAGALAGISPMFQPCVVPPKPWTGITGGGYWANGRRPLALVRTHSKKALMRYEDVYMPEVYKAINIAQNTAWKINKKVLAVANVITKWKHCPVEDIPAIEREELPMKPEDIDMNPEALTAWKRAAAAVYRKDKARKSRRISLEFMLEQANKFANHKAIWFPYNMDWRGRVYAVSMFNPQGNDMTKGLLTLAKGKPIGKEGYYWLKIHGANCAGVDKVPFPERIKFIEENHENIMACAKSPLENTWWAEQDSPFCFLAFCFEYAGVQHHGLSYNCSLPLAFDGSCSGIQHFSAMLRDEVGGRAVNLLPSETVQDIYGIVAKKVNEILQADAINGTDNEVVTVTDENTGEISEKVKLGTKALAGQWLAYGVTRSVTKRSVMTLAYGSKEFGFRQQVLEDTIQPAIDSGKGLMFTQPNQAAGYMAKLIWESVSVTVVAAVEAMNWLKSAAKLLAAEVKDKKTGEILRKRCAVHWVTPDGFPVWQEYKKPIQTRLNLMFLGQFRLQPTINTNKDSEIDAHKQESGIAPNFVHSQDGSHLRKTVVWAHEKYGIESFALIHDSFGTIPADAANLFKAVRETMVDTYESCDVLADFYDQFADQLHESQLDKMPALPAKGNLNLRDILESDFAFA
brome mosaic virus RdRp, sequence (P03594 whole entry): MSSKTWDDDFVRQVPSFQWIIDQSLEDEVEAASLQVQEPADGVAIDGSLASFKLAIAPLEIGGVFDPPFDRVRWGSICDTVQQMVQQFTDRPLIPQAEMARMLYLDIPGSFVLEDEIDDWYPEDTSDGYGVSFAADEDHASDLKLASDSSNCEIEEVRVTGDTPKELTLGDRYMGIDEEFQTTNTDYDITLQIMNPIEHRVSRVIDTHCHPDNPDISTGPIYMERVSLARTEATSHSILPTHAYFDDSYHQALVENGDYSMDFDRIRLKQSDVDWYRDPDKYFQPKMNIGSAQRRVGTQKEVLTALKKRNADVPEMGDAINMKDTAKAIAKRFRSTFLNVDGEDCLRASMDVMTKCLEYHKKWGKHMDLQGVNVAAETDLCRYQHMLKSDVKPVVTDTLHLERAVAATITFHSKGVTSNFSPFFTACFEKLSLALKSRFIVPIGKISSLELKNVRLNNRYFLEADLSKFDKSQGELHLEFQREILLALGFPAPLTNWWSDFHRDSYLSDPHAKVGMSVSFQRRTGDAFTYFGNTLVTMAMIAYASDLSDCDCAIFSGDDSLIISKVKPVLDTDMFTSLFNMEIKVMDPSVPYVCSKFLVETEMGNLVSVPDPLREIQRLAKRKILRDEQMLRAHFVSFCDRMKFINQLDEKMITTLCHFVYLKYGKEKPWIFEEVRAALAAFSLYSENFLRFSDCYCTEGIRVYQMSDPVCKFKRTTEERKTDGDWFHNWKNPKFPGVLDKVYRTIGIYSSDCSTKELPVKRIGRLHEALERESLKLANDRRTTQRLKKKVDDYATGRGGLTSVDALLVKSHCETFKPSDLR
brome mosaic virus RdRp, sequence (P03588 whole entry, further chain): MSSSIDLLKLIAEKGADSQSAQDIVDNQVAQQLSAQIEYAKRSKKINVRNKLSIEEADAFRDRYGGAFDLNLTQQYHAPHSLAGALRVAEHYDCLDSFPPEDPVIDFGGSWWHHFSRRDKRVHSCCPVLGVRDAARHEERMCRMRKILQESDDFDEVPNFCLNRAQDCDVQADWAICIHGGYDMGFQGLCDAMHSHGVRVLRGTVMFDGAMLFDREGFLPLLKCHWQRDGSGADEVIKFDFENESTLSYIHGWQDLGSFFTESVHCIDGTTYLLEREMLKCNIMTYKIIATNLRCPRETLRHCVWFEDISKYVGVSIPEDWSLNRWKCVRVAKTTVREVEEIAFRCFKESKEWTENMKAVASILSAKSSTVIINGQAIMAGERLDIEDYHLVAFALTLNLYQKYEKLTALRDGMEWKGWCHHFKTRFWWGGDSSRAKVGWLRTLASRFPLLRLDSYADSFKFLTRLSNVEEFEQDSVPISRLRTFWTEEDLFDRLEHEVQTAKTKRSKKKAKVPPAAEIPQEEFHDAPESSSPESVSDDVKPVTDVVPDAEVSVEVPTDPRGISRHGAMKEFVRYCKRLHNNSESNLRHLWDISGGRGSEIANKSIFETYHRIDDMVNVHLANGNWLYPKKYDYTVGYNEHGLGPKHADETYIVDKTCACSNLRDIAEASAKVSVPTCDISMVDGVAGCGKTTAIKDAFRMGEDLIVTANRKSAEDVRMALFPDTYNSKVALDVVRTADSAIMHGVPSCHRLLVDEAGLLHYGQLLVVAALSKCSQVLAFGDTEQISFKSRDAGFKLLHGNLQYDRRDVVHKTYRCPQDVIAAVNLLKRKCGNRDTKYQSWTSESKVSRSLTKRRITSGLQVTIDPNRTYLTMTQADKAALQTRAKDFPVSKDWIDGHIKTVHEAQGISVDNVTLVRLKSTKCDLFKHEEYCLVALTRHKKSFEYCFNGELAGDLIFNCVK
RdRp of bovine viral diarrhea virus, sequence (P19711 3270-3988): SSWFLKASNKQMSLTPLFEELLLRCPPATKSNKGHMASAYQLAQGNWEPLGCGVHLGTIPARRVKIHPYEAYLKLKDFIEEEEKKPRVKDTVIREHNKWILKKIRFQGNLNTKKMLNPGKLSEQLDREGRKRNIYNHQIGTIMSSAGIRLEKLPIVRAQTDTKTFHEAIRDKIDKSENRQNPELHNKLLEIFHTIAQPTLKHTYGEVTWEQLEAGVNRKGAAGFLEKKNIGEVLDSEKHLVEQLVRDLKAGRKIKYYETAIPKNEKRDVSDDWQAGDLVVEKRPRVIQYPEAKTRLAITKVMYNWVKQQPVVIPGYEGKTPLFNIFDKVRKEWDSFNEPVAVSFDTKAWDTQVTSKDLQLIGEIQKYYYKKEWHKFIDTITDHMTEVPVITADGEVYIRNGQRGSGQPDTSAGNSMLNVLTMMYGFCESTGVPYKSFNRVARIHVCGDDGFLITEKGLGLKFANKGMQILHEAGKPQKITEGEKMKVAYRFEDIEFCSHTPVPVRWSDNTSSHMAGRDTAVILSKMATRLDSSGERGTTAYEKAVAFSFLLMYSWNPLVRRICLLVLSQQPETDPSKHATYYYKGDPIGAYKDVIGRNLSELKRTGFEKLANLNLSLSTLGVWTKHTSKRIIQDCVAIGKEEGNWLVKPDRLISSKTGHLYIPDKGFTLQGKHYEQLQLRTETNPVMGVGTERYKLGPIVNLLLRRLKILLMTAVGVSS

Structure (SMILES)	increase in absorbance at 405 nm ([1]; homothymidylate template)	trends in plasma reactions ([2]; WV-15T template, compared with PNP-GTP results)	substrate for the polymerase [1]	increase in absorbance due to PNP release ([1]; alkaline phosphatase, WV-15C homodeoxycytidylate template, monitored at 405 nM)	RNA synthesis directed when used in place of GTP ([1]; compared with normal GTP)	absorbance higher than background ([1]; complete transcription reaction with cognate template, 3 h after start) [fold]	absorbance vs background ([1]; ten minutes after start, alkaline phosphatase, WV-15C template, 405 nM)	RNA synthesis directed when used in place of GTP [3]	substrate for the polymerase (brome mosaic virus RdRp)	RNA synthesis directed when used in place of GTP (brome mosaic virus RdRp; compared with normal GTP)	PNP release / resistance to phosphatases (alkaline phosphatase)	absorbance at 405 nm ([2]; plasma to 10% final volume, 7 h incubation)	PNP levels ([2]; plasma with alkaline phosphatase, polymerase and noncognate template, 7 hours)
Nc1ncnc2c1ncn2[C@@H]1O[C@H](COP(=O)(O)OP(=O)(O)OP(=O)(O)Oc2ccc([N+](=O)[O-])cc2)[C@@H](O)[C@H]1O [PNP-ATP, Adenosine-5′-(γ-4-nitrophenyl)triphosphate]	linear increase	Identical trends											
Nc1nc2c(ncn2[C@@H]2O[C@H](COP(=O)(O)OP(=O)(O)OP(=O)(O)Oc3ccc([N+](=O)[O-])cc3)[C@@H](O)[C@H]2O)c(=O)[nH]1 [PNP-GTP, Guanosine-5′-(γ-4-nitrophenyl)triphosphate]			suitable substrate	linear over a two-hour period	levels similar to reactions containing normal GTP	> 7	absorbance at levels distinctly above background	Identical results	suitable substrate	levels similar to reactions containing normal GTP	did not result in PNP release	did not increase the absorbance at 405 nm	increased PNP levels slightly

Reference: patent US6399335B1, “γ-phosphoester nucleoside triphosphates” (Advanced Research and Technology Institute, Inc., priority 1999, dated 2002)
